Values after ≈ are worked out from the molar mass of the structure shown.
Columns and labels:
Type in all cases: cell-based
C. albicans ATCC 10231 = assay: MIC, broth double dilution; settings: strain no. 11, C. albicans ATCC 10231
From the text: (§1) The antifungal activities of compounds 1a, 1 and 2 (collectively: caspofungin derivatives) were compared to that of caspofungin and CSF-BOD using a panel of 49 C. albicans and C. glabrata strains (Tables 1 and 2). The panel included ATCC strains and clinical isolates as well a collection of caspofungin-responsive strains and their corresponding isogenic caspofungin-resistant derivatives, constructed by introducing point mutations within and near the defined hotspots in the FKS1 and/or FKS2 genes of the GS complex. Minimal inhibitory concentration (MIC) values for all strains were determined using the broth double dilution method and are summarized in FIG. 2 and Table 2. […] The clinical breakpoints (threshold) for caspofungin-resistance in C. albicans and C. glabrata are 1 μg/mL and 0.5 μg/mL, respectively.

C. glabrata CST34 = assay: MIC, broth double dilution; settings: strain no. 21, C. glabrata CST34 (parental)
From the text: as §1

[1] = test system: C. glabrata T-982 (11-181); assay: MIC, broth double dilution; settings: strain no. 46, T-982 (11-181), clinical isolate
From the text: as §1

[2] = test system: C. glabrata T-983 (11-079); assay: MIC, broth double dilution; settings: strain no. 47, T-983 (11-079), clinical isolate
From the text: as §1

C. albicans SC5314 = assay: MIC, broth double dilution; settings: strain no. 1, C. albicans SC5314, WT
From the text: as §1

[3] = test system: C. glabrata T-191 (11-331); assay: MIC, broth double dilution; settings: strain no. 43, T-191 (11-331), clinical isolate
From the text: as §1

[4] = test system: C. glabrata T-190 (11-304); assay: MIC, broth double dilution; settings: strain no. 42, T-190 (11-304), clinical isolate
From the text: as §1

C. glabrata DPL1086 = assay: microbe, parasite or virus in culture; settings: strain no. 17, DPL1086, parental ATCC 90030, FKS1 mutant HS1-S629P
From the text: as §1

[5] = test system: C. albicans T-2074 (DP-122); assay: microbe, parasite or virus in culture; settings: strain no. 12, T-2074 (DP-122), clinical isolate, FKS1 HS1-P649H mutation
From the text: as §1

[6] = test system: C. albicans DPL1016 (DP-A15-10); assay: microbe, parasite or virus in culture; settings: strain no. 3, DPL1016 (DP-A15-10), parental SC5314, FKS1 mutant HS1-S645P
From the text: as §1

C. glabrata TGL00091 = assay: microbe, parasite or virus in culture; settings: strain no. 35, TGL00091, FKS mutant
From the text: as §1

[7] = test system: C. albicans T-2069 (DP-85); assay: microbe, parasite or virus in culture; settings: strain no. 14, T-2069 (DP-85), clinical isolate, FKS1 HS1-S645F mutation
From the text: as §1

[8] = test system: C. albicans T-2077 (DP-205); assay: microbe, parasite or virus in culture; settings: strain no. 15, T-2077 (DP-205), clinical isolate, FKS1 HS1-S645P mutation
From the text: as §1

C. glabrata TGL00277 = assay: microbe, parasite or virus in culture; settings: strain no. 33, TGL00277, parental EF1620, FKS mutant
From the text: as §1

[9] = test system: C. albicans DPL1015 (DP-A15); assay: microbe, parasite or virus in culture; settings: strain no. 2, DPL1015 (DP-A15), parental SC5314, FKS1 mutant HS1-S645S/P
From the text: as §1

C. glabrata TGL00258 = assay: microbe, parasite or virus in culture; settings: strain no. 25, TGL00258, parental CST34, FKS mutant
From the text: as §1

C. albicans SN95 = assay: microbe, parasite or virus in culture; settings: strain no. 8, SN95, parental RM1000
From the text: as §1

[10] = test system: C. albicans T-2068 (DP-C42); assay: microbe, parasite or virus in culture; settings: strain no. 4, T-2068 (DP-C42), parental SC5314, FKS1 HS1-F641S mutation
From the text: as §1

C. glabrata TGL00253 = assay: microbe, parasite or virus in culture; settings: strain no. 20, TGL00253, parental CST109, FKS2 mutant
From the text: as §1

C. glabrata TGL00107 = assay: microbe, parasite or virus in culture; settings: strain no. 23, TGL00107, parental CST34, FKS mutant
From the text: as §1

C. glabrata TGL00265 = assay: microbe, parasite or virus in culture; settings: strain no. 30, TGL00265, parental CST78, FKS mutant
From the text: as §1

C. glabrata TGL00275 = assay: microbe, parasite or virus in culture; settings: strain no. 32, TGL00275, FKS mutant
From the text: as §1

[11] = test system: C. glabrata T-985 (11-076); assay: microbe, parasite or virus in culture; settings: strain no. 49, T-985 (11-076), clinical isolate
From the text: as §1

C. glabrata TGL00054 = assay: microbe, parasite or virus in culture; settings: strain no. 19, TGL00054, parental CST109, FKS2 mutant
From the text: as §1

C. glabrata TGL00293 = assay: microbe, parasite or virus in culture; settings: strain no. 37, TGL00293, parental BG2, FKS mutant
From the text: as §1

C. glabrata TGL00264 = assay: microbe, parasite or virus in culture; settings: strain no. 29, TGL00264, parental CST78, FKS mutant
From the text: as §1

C. glabrata TGL00294 = assay: microbe, parasite or virus in culture; settings: strain no. 38, TGL00294, parental BG2, FKS mutant
From the text: as §1

C. glabrata TGL00056 = assay: microbe, parasite or virus in culture; settings: strain no. 22, TGL00056, parental CST34, FKS mutant
From the text: as §1

C. glabrata CST78 = assay: microbe, parasite or virus in culture; settings: strain no. 26, C. glabrata CST78
From the text: as §1

C. glabrata TGL00065 = assay: microbe, parasite or virus in culture; settings: strain no. 27, TGL00065, FKS mutant
From the text: as §1

C. glabrata TGL00291 = assay: microbe, parasite or virus in culture; settings: strain no. 36, TGL00291, parental BG2, FKS mutant
From the text: as §1

C. glabrata TGL00256 = assay: microbe, parasite or virus in culture; settings: strain no. 24, TGL00256, parental CST34, FKS mutant
From the text: as §1

[12] = test system: C. albicans T-2076 (DP-194); assay: microbe, parasite or virus in culture; settings: strain no. 13, T-2076 (DP-194), clinical isolate, FKS1 HS1-S645F, HS2-R1361R/H mutation
From the text: as §1

C. albicans CG72 = assay: microbe, parasite or virus in culture; settings: strain no. 7, CG72, parental CAM, pKE1:GFP-YPT72
From the text: as §1

C. glabrata TGL00263 = assay: microbe, parasite or virus in culture; settings: strain no. 28, TGL00263, parental CST78, FKS mutant
From the text: as §1

CC[C@H](C)C[C@H](C)CCCCCCCCC(=O)N[C@H]1C[C@@H](O)[C@@H](NCCN)NC(=O)[C@@H]2[C@@H](O)CCN2C(=O)[C@H]([C@H](O)CCN)NC(=O)[C@H]([C@H](O)[C@@H](O)c2ccc(OCc3cn(CCCNc4ccc([N+](=O)[O-])c5nonc45)nn3)cc2)NC(=O)[C@@H]2C[C@@H](O)CN2C(=O)[C@H]([C@@H](C)O)NC1=O [Compound 2]
MIC (C. albicans ATCC 10231): 2 µg/mL (≈ 1.43 µM)
MIC (C. glabrata CST34): 4 µg/mL (≈ 2.87 µM)
MIC [1]: 2 µg/mL (≈ 1.43 µM)
MIC [2]: 2 µg/mL (≈ 1.43 µM)
MIC (C. albicans SC5314): 1 µg/mL (≈ 0.717 µM)
MIC [3]: 2 µg/mL (≈ 1.43 µM)
MIC [4]: 2 µg/mL (≈ 1.43 µM)
MIC (C. glabrata DPL1086): 32 µg/mL (≈ 22.9 µM)
MIC [5]: 64 µg/mL (≈ 45.9 µM)
MIC [6]: >64 µg/mL
MIC (C. glabrata TGL00091): >64 µg/mL
MIC [7]: >64 µg/mL
MIC [8]: >64 µg/mL
MIC (C. glabrata TGL00277): >64 µg/mL
MIC [9]: 32 µg/mL (≈ 22.9 µM)
MIC (C. glabrata TGL00258): >64 µg/mL
MIC (C. albicans SN95): 2 µg/mL (≈ 1.43 µM)
MIC [10]: 64 µg/mL (≈ 45.9 µM)
MIC (C. glabrata TGL00253): >64 µg/mL
MIC (C. glabrata TGL00107): >64 µg/mL
MIC (C. glabrata TGL00265): >64 µg/mL
MIC (C. glabrata TGL00275): >64 µg/mL
MIC [11]: 4 µg/mL (≈ 2.87 µM)
MIC (C. glabrata TGL00054): >64 µg/mL
MIC (C. glabrata TGL00293): >64 µg/mL
MIC (C. glabrata TGL00264): >64 µg/mL
MIC (C. glabrata TGL00294): >64 µg/mL
MIC (C. glabrata TGL00056): >64 µg/mL
MIC (C. glabrata CST78): 4 µg/mL (≈ 2.87 µM)
MIC (C. glabrata TGL00065): >64 µg/mL
MIC (C. glabrata TGL00291): >64 µg/mL
MIC (C. glabrata TGL00256): 64 µg/mL (≈ 45.9 µM)
MIC [12]: >64 µg/mL
MIC (C. albicans CG72): 1 µg/mL (≈ 0.717 µM)
MIC (C. glabrata TGL00263): >64 µg/mL
